Data on 7 molecules can be found in ChEMBL document CHEMBL1150921, “Organochlorine compounds from a terrestrial higher plant: structures and origin of chlorinated orcinol derivatives from diseased bulbs of Lilium maximowiczii” (1998).

The source made the active and inactive calls. The rule behind the calls is not given here.

In assay [1] the test system is Bipolaris leersiae. Put plainly: Antifungal activity against Bipolaris leersiae assessed as inhibition of conidial germination at 100 ppm after 24 hrs by microscopy. Type of assay: functional.
In assay [2] the test system is Bipolaris leersiae. Put plainly: Antifungal activity against Bipolaris leersiae assessed as inhibition of conidial germination at 50 ppm after 24 hrs by microscopy. Type of assay: functional, organism-based.
The test system of assay [3] is Bipolaris leersiae. Put plainly: Antifungal activity against Bipolaris leersiae assessed as inhibition of conidial germination at 300 ppm after 24 hrs by microscopy. The class given is functional.
Assay [4] concerns Bipolaris leersiae. Put plainly: Antifungal activity against Bipolaris leersiae assessed as inhibition of conidial germination at 500 ppm after 24 hrs by microscopy. Type of assay: functional.
In assay [5] the test system is Bipolaris leersiae. Put plainly: Antifungal activity against Bipolaris leersiae assessed as inhibition of conidial germination at 10 ppm after 24 hrs by microscopy. Type of assay: functional.
The test system of assay [6] is Bipolaris leersiae. Put plainly: Antifungal activity against Bipolaris leersiae assessed as inhibition of conidial germination at 1000 ppm after 24 hrs by microscopy. Type of assay: functional, organism-based.

In general, inhibition refers to the relative decrease from the control value, in per cent.

With `COc1cc(OC)c(Cl)c(C)c1Cl`, the result in the assay with Bipolaris leersiae [1] was inactive.
Consider `COc1c(O)c(C)c(Cl)c(OC)c1Cl`, for which the outcome with Bipolaris leersiae [2], with Bipolaris leersiae [1], in the assay with Bipolaris leersiae [3] and in the assay on Bipolaris leersiae [4] was Active.
Turning to `COc1c(Cl)c(C)c(Cl)c(O)c1Cl`, the result in the assay on Bipolaris leersiae [5], with Bipolaris leersiae [2], in the assay on Bipolaris leersiae [1], with Bipolaris leersiae [3] and with Bipolaris leersiae [4] was Active.
With `Cc1cc(O)cc(O)c1` [ORCINOL], the inhibition at 100 ppm with Bipolaris leersiae [1] was determined as 30%. For the same molecule, in the assay on Bipolaris leersiae [3], the inhibition at 300 ppm was determined as 30%. Further, the inhibition at 500 ppm in the assay on Bipolaris leersiae [4] was determined as 80%. The outcome in the assay with Bipolaris leersiae [6] was Active.
Turning to `COc1c(O)c(C)c(Cl)c(O)c1Cl`, the inhibition at 10 ppm with Bipolaris leersiae [5] stood at 80%. The result with Bipolaris leersiae [2], in the assay on Bipolaris leersiae [1], with Bipolaris leersiae [3] and in the assay with Bipolaris leersiae [4] was Active.
Regarding `Cc1cc(O)c(Cl)c(O)c1`, the inhibition at 100 ppm with Bipolaris leersiae [1] worked out at 80%. Moreover, the outcome with Bipolaris leersiae [3] and with Bipolaris leersiae [4] was Active.
As for `Cc1cc(O)cc(O)c1Cl`, the inhibition at 100 ppm with Bipolaris leersiae [1] was 80%. Moreover, the outcome with Bipolaris leersiae [3] and in the assay on Bipolaris leersiae [4] was Active.
